Test results published in patent US20060286159A1 (priority 2003, published 2006).
“Also recorded” adds a separate entry of the source.

Key:
[1] = system: de Quervain's tendinopathy in the right extensor tendons of the thumb; test: Example 4: patient case, de Quervain's tendinopathy; type: in vivo, human
Description: A patient suffering de Quervain's tendinopathy in the right extensor tendons of the thumb applies a transdermal patch delivering 10 mcg/hr nitroglycerin for a period of 24 weeks. This condition can be caused due to the arrival of a new baby and the consequent carrying as an unusual daily activity, and as is common, physical therapy and intermittent use of a wrist splint may provide little relief of symptoms.

[2] = system: persistent active tendinopathy of the left Achilles tendon; test: Example 3: patient case, persistent active tendinopathy of the left Achilles tendon; type: in vivo, human; conditions: patch 30 mcg/hr for 8 weeks
Description: A patient suffering from persistent active tendinopathy of the left Achilles tendon applies a transdermal patch delivering 30 mcg/hr nitroglycerin for a period of 8 weeks.

chronic tennis elbow = test: Example 5: patient case, chronic tennis elbow; type: in vivo, human; conditions: patch 60 mcg/hr for 2 weeks
Description: A patient suffering from chronic tennis elbow applies a transdermal patch delivering 60 mcg/hr nitroglycerin for a period of 2 weeks.

[3] = system: chronic extensor tendinopathy at the elbow; test: Extensor tendinopathy (tennis elbow) clinical trial (randomized, double blind, placebo controlled)
[4] = system: chronic overuse tendinopathies; test: The three tendinopathy clinical trials taken together; type: in vivo, human
Description: Three clinical trials were approved by an institutional Ethics Committee. Patients with clinical diagnoses of the specified tendinopathies were recruited through newspaper advertisements and private consulting rooms. All subjects were over 18 years of age, and gave written informed consent.
The patients were randomly allocated into two groups. […] The active and placebo patches were indistinguishable from one another. The randomization was controlled by the senior pharmacist at the institution who also supervised the packaging of transdermal patches and their distribution to patients. Both the patients and the clinical examiner were blinded as to which group the patients were in, i.e. double-blind.
Patients were instructed in the application of the patches at their initial visit. They were informed that the dosing regimen was one quarter of a transdermal patch to be applied daily to the skin area closest to the affected tendon. The patches were to be left in situ for 24 hours and then replaced with a new quarter patch. […] Patients were instructed to rotate the patch application site around this point with each new patch application for the six-month study duration in an effort to minimize application site irritation.
A single examiner assessed all patients and recorded information on clinical outcome measures. All clinical assessments were repeated at week 0, 2, 6, 12, and 24 with an identical format. Records of headaches, paracetamol use, and compliance with patch application and the tendon rehabilitation program were also made at these scheduled visits. Patients were excluded from the trials for non-compliance at any two visits.
Outcome measures were analyzed with Sigmastat 2.0 statistical software (Jandel Scientific, California, U.S.A) using Mann-Whitney rank sum tests to compare differences between groups, and using the Wilcoxon sign rank test to compare differences within the groups. The level of significance was defined at p=0.05. A Chi square analysis of patient reported symptom outcomes at week 24 was performed. Effect size estimates were calculated by dividing the mean z-score, calculated from all outcome measures at week 24, by the square root of the sample size to given a general measure of the overall effect of the patch on pain, tendon force and function.

[5] = system: Achilles tendinopathy (heels); test: Three year follow-up study of the Achilles trial of Example 1; type: in vivo, human; conditions: for Night Pain—All Heels (mean adjusted for baseline) / Pain at Rest—All Heels (mean adjusted for baseline) / Pain With Activity—All Heels (mean adjusted for baseline) / Tenderness—All Heels (mean adjusted for baseline) / Hop Test—All Heels (mean adjusted for baseline): N=32; for Pain With Activity—All Heels (mean adjusted for baseline): scale 0-4; for Tenderness—All Heels (mean adjusted for baseline): scale 0-3; for Hop Test—All Heels (mean adjusted for baseline): pain score 0-10
Description: A three year follow-up study of the experiment presented in Example 1 was performed. […] Among the 52 patients in follow-up study ([…]), 15 had bilateral involvement (7 on the active patch and 8 on placebo). The results are presented in two sets. The follow-up study used the same outcome measures as were used in the original parent study.
The first set compares the results of the 68 heels and the second set results are shown for the 52 patients by averaging results for patients with bilateral involvement. Analyses were performed as analyses of covariance, with the baseline assessment as the covariate, to adjust the results for baseline differences. Mean results shown in Tables III-XIII below are adjusted for the baseline values.

[6] = GTN group, range over three trials
[7] = GTN groups, range over three trials
[8] = 3 years, N=24, placebo 0.51, p=0.09
[9] = 24 weeks, N=24, placebo 0.86, p=0.09

## O=[N+]([O-])OCC(CO[N+](=O)[O-])O[N+](=O)[O-] [glyceryl trinitrate, 1,2,3-propanetriol trinitrate]
[1]; 2 years after stop, negative Finklestein test
  pain after administration is stopped: continue to have reduced pain
[1]; patch 10 mcg/hr for 24 weeks, person
  pain during administration: decrease in pain within one day
[2]; eight weeks following discontinuation
  pain and tenderness of the ankle after discontinuation: continue to feel decreased pain and tenderness of the ankle
[2]; person
  pain and tenderness of the ankle during therapy: reduction of pain and tenderness of the ankle by day 2 of therapy
Chronic tennis elbow
  continuation of the reduction of symptoms after discontinuance: at least two weeks
[3]; GTN group
  Headache (Days) Average: GTN 5 Days
  Headache (Days) Median: GTN 3 Days
  Headache (Days) Total: 136 days
  Headache: percentage of patients: 63%
  No Side Effects: GTN 35%
  Other Noted Side-Effects: Increase Axillary Sweating: Sweating 2%
[3]; Week 2 (p=0.01)
  Pain Outcomes: elbow pain with activity vs placebo: significant decrease; also recorded: Decreased
[3]; Week 6 (p=0.02) / 12 (p=0.02)
  Tenderness Outcomes: lateral epicondylar tenderness vs placebo: significant decreases; also recorded: significantly less; also recorded: Decreased
[3]; Week 24 (p=0.03)
  Force Outcomes: ORI-TETS mean peak force vs placebo: significant increase; also recorded: Increased Mean
  Force Outcomes: ORI-TETS mean total work vs placebo: significant increase; also recorded: Increased Mean
[3]; application site, GTN group
  Other Noted Side-Effects: Rash: Rash 21%,
[3]; excellent result at 24 weeks, Chi square p=0.005
  number needed to treat (NNT): 4.8
[3]; patients, all GTN group
  Discontinuations: Headache: Headache 2
  Discontinuations: Rash: Rash 2,
[3]; used for headache, GTN group
  Paracetamol Average: GTN 8 tablets
  Paracetamol Median: GTN 4 tablets
  Paracetamol Total: GTN 214 tablets
[3]; week 24, more patients asymptomatic with activities of daily living than placebo, 1.25 mg/24 h patch + rehabilitation
  Improved Patient Outcomes: 21%
[3]; week 24, placebo 60%
  patients with excellent improvement, patient reported: 81%
[4]; GTN group
  headache as a side-effect: majority of patients
[4]; [6]
  average number of days of headache: 5 to 6 days
  headache, patients: 53-76%
  median number of days of headache: 3 to 4 days
[4]; GTN groups
  headaches that occurred within the first two weeks of the trial: 72%
[4]; [7]
  average paracetamol usage: 7-14 tablets
  median paracetamol usage: 2-10 tablets
  patients that experienced no side-effects: 30-44%
  total paracetamol usage: 138-237 tablets
[4]; GTN groups, range over three trials, placebo 7-12%
  patients experiencing application site rash: 8-21%
[4]; all three trials, timing varied
  tendon pain with activity vs placebo: significantly improved
[4]; at 24 weeks, all three clinical trials, p=0.001
  chance of being asymptomatic with activities of daily living vs placebo (Chi square): significantly increased
[4]; completion of the trials, range over three trials
  more patients than in the placebo group asymptomatic with activities of daily living (rated tendon excellent): 21-29%
[4]; equivalent to effect sizes at week 24
  changes in patient success rates (binomial effect size displays): 12-26%
[4]; human, in vivo
  other side-effects (increase in pre-existing tinnitus, ipsilateral axillary sweating, apprehension): severity and reversibility: None of these were severe, and all were reversible on discontinuation of the medication
  severity of rash vs placebo: greater severity of rash
[4]; in each clinical trial
  patients discontinued due to headache: 1-2 patients
[4]; in general
  severity of headaches vs placebo: more severe headaches
[4]; of clinical trial patients, all in GTN groups, headache or application site rash
  patients discontinued during the trials: 4-6%
[4]; three trials
  patients discontinued due to rash, total: five
[4]; type 2 diabetic, reversible on discontinuation
  patients discontinued for recurrent facial flushing: One
[4]; week 0 compared with week 24
  decrease of patient-rated pain scores, range over the trials: 64-67%
  increase of force outcome measures, range over the trials: 33-38%
[4]; week 0 compared with week 24, placebo […]%
  increase of force outcome measures, average: 37%
[4]; week 0 compared with week 24, placebo 30%
  decrease of patient-rated pain scores (with activity, at night, at rest), average: 65%
[4]; week 24, all three trials
  force outcome measures vs placebo: significant increases
[4]; week 24, range over three trials
  mean estimated effect sizes: 0.12-0.26
[5]; 3 years, N=24, placebo 0.29, p=0.06
  Night Pain—Average Result Used for Bilateral Patients: 0.07
[5]; 3 years, N=24, placebo 0.39, p=0.08
  Pain at Rest—Average Result Used for Bilateral Patients: 0.10
[5]; [8]
  Hop Test—Average Result Used for Bilateral Patients: 0.15
  Pain With Activity—Average Result Used for Bilateral Patients: 0.15
[5]; 3 years, N=24, placebo 0.66, p=0.052
  Tenderness—Average Result Used for Bilateral Patients: 0.33
[5]; 3 years, N=24, placebo 71.4%, p=0.16
  RTS, %: 87.5%
[5]; 3 years, placebo 0.27, p=0.07
  Night Pain—All Heels (mean adjusted for baseline): 0.10
[5]; 3 years, placebo 0.35, p=0.07
  Pain at Rest—All Heels (mean adjusted for baseline): 0.10
[5]; 3 years, placebo 0.50, p=0.059
  Pain With Activity—All Heels (mean adjusted for baseline): 0.16
[5]; 3 years, placebo 0.66, p=0.031
  Tenderness—All Heels (mean adjusted for baseline): 0.35
[5]; 3 years, placebo 0.96, p=0.07
  Hop Test—All Heels (mean adjusted for baseline): 0.36
[5]; 24 weeks, N=24, placebo 0.34, p=0.11
  Night Pain—Average Result Used for Bilateral Patients: 0.15
[5]; 24 weeks, N=24, placebo 0.46, p=0.20
  Pain at Rest—Average Result Used for Bilateral Patients: 0.26
[5]; [9]
  Hop Test—Average Result Used for Bilateral Patients: 0.44
  Pain With Activity—Average Result Used for Bilateral Patients: 0.44
[5]; 24 weeks, N=24, placebo 0.90, p=0.43
  Tenderness—Average Result Used for Bilateral Patients: 0.70
[5]; 24 weeks, placebo 0.30, p=0.36
  Night Pain—All Heels (mean adjusted for baseline): 0.19
[5]; 24 weeks, placebo 0.41, p=0.35
  Pain at Rest—All Heels (mean adjusted for baseline): 0.29
[5]; 24 weeks, placebo 0.78, p=0.22
  Pain With Activity—All Heels (mean adjusted for baseline): 0.52
[5]; 24 weeks, placebo 0.83, p=0.49
  Tenderness—All Heels (mean adjusted for baseline): 0.69
[5]; 24 weeks, placebo 1.57, p=0.026
  Hop Test—All Heels (mean adjusted for baseline): 0.61
[5]; both at 24 weeks and at 3 years
  results of each assessment vs placebo: numerically better results
